# Patent EP4417602A1, “SUBSTITUTED PYRAZOLE CARBOXAMIDES, SALTS THEREOF AND THEIR USE AS HERBICIDALLY ACTIVE SUBSTANCES” (Bayer AG, priority 2023, dated 2024)
# Test system: ECHCG
# Assay: A. Herbicidal pre-emergence action on harmful plants (Tables A)
# Format: in vivo, Echinochloa crus-galli
# Conditions: application rate 320 g/ha; visual grading after ca. 3 weeks vs untreated controls; 100% = plants have died off, 0% = as control plants
# Excerpt: (§1) Seeds of mono- and dicotyledonous weed plants were sown in plastic pots (double sowings with one species of mono- and one species of dicotyledonous weed plants per pot), in sandy loam, and covered with soil. The compounds according to the invention, formulated in the form of wettable powders (WP) or as emulsifiable concentrates (EC), were applied to the surface of the covering soil as aqueous suspension or emulsion, with the addition of 0.5% of an additive, at an application rate of 6001 of water per hectare (converted). Following treatment, the pots were placed in a greenhouse and kept under optimum growth conditions for the test plants. The visual grading of the damage to the test plants was carried out after ca. 3 weeks in comparison to untreated controls (herbicidal effect in percent (%): 100% effect = plants have died off, 0% effect = as control plants). Tables A1 to A12, below, show the effects of selected compounds of the general formula (I) according to table 1 on various harmful plants and an application rate corresponding to 1280 g/ha or below obtained by the experimental procedure mentioned above. Table A1: pre-emergence activity at 1280g/ha against ABUTH in %
row,Compound,pre-emergence activity against ECHCG
1,COC(=O)c1nn(C)cc1C(=O)N1CCCC1Cc1ccc(F)cc1F (racemic) [Example I-096],100%
2,Cn1cc(C(=O)N2CCC2Cc2ccccc2F)c(COCC(F)F)n1 (racemic) [Example I-108],100%
3,Cn1cc(C(=O)N2CCC2Cc2ccccc2Cl)c(COCC(F)F)n1 (racemic) [Example I-109],100%
4,"COCc1c(C(=O)N2CCCC2Cc2c(F)cccc2Cl)cnn1C (single isomer, unassigned) [Example I-190]",90%

# Same assay, conditions: application rate 1280 g/ha; visual grading after ca. 3 weeks vs untreated controls; 100% = plants have died off, 0% = as control plants
row,Compound,pre-emergence activity against ECHCG
1,COC(=O)c1nn(C)cc1C(=O)N1CCCC1Cc1ccc(F)cc1F (racemic) [Example I-096],100%
2,Cn1cc(C(=O)N2CCC2Cc2ccccc2F)c(COCC(F)F)n1 (racemic) [Example I-108],100%
3,Cn1cc(C(=O)N2CCC2Cc2ccccc2Cl)c(COCC(F)F)n1 (racemic) [Example I-109],100%
4,"COCc1c(C(=O)N2CCCC2Cc2c(F)cccc2Cl)cnn1C (single isomer, unassigned) [Example I-190]",100%

# Test system: LOLRI
# Assay: as above
# Format: in vivo, Lolium rigidum
# Conditions: application rate 1280 g/ha; visual grading after ca. 3 weeks vs untreated controls; 100% = plants have died off, 0% = as control plants
# Excerpt: as §1
row,Compound,pre-emergence activity against LOLRI
1,Cn1cc(C(=O)N2CCC2Cc2ccccc2F)c(COCC(F)F)n1 (racemic) [Example I-108],90%
2,"COCc1c(C(=O)N2CCCC2Cc2c(F)cccc2Cl)cnn1C (single isomer, unassigned) [Example I-190]",90%

# Test system: MATIN
# Assay: as above
# Format: in vivo, Matricaria inodora
# Conditions: application rate 1280 g/ha; visual grading after ca. 3 weeks vs untreated controls; 100% = plants have died off, 0% = as control plants
# Excerpt: as §1
row,Compound,pre-emergence activity against MATIN
1,Cn1cc(C(=O)N2CCC2Cc2ccccc2F)c(COCC(F)F)n1 (racemic) [Example I-108],100%
2,Cn1cc(C(=O)N2CCC2Cc2ccccc2Cl)c(COCC(F)F)n1 (racemic) [Example I-109],100%

# Test system: SETVI
# Assay: as above
# Format: in vivo, Setaria viridis
# Conditions: application rate 1280 g/ha; visual grading after ca. 3 weeks vs untreated controls; 100% = plants have died off, 0% = as control plants
# Excerpt: as §1
row,Compound,pre-emergence activity against SETVI
1,Cn1cc(C(=O)N2CCC2Cc2ccccc2F)c(COCC(F)F)n1 (racemic) [Example I-108],100%
2,Cn1cc(C(=O)N2CCC2Cc2ccccc2Cl)c(COCC(F)F)n1 (racemic) [Example I-109],90%
3,"COCc1c(C(=O)N2CCCC2Cc2c(F)cccc2Cl)cnn1C (single isomer, unassigned) [Example I-190]",100%

# Test system: STEME
# Assay: as above
# Format: in vivo, Stellaria media
# Conditions: application rate 1280 g/ha; visual grading after ca. 3 weeks vs untreated controls; 100% = plants have died off, 0% = as control plants
# Excerpt: as §1
row,Compound,pre-emergence activity against STEME
1,COC(=O)c1nn(C)cc1C(=O)N1CCCC1Cc1ccc(F)cc1F (racemic) [Example I-096],100%
2,Cn1cc(C(=O)N2CCC2Cc2ccccc2F)c(COCC(F)F)n1 (racemic) [Example I-108],90%
3,"COCc1c(C(=O)N2CCCC2Cc2c(F)cccc2Cl)cnn1C (single isomer, unassigned) [Example I-190]",90%

# Test system: POAAN
# Assay: as above
# Format: in vivo, Poa annua
# Conditions: application rate 80 g/ha; Table A7c
# Excerpt: as §1
row,Compound,pre-emergence activity against POAAN
1,Cn1cc(C(=O)N2CCC2Cc2ccccc2F)c(COCC(F)F)n1 (racemic) [Example I-108],90%
2,"COCc1c(C(=O)N2CCCC2Cc2c(F)cccc2Cl)cnn1C (single isomer, unassigned) [Example I-190]",90%

# Same assay, conditions: application rate 320 g/ha; Table A7b
row,Compound,pre-emergence activity against POAAN
1,COC(=O)c1nn(C)cc1C(=O)N1CCCC1Cc1ccc(F)cc1F (racemic) [Example I-096],100%
2,Cn1cc(C(=O)N2CCC2Cc2ccccc2F)c(COCC(F)F)n1 (racemic) [Example I-108],100%
3,Cn1cc(C(=O)N2CCC2Cc2ccccc2Cl)c(COCC(F)F)n1 (racemic) [Example I-109],100%
4,"COCc1c(C(=O)N2CCCC2Cc2c(F)cccc2Cl)cnn1C (single isomer, unassigned) [Example I-190]",100%

# Same assay, conditions: application rate 1280 g/ha; visual grading after ca. 3 weeks vs untreated controls; 100% = plants have died off, 0% = as control plants
row,Compound,pre-emergence activity against POAAN
1,COC(=O)c1nn(C)cc1C(=O)N1CCCC1Cc1ccc(F)cc1F (racemic) [Example I-096],100%
2,Cn1cc(C(=O)N2CCC2Cc2ccccc2F)c(COCC(F)F)n1 (racemic) [Example I-108],100%
3,Cn1cc(C(=O)N2CCC2Cc2ccccc2Cl)c(COCC(F)F)n1 (racemic) [Example I-109],100%
4,"COCc1c(C(=O)N2CCCC2Cc2c(F)cccc2Cl)cnn1C (single isomer, unassigned) [Example I-190]",100%

# Test system: DIGSA
# Assay: as above
# Format: in vivo, Digitaria sanguinalis
# Conditions: application rate 320 g/ha; Table A12b
# Excerpt: as §1
row,Compound,pre-emergence activity against DIGSA
1,Cn1cc(C(=O)N2CCC2Cc2ccccc2Cl)c(COCC(F)F)n1 (racemic) [Example I-109],90%
2,"COCc1c(C(=O)N2CCCC2Cc2c(F)cccc2Cl)cnn1C (single isomer, unassigned) [Example I-190]",100%

# Same assay, conditions: application rate 1280 g/ha; Table A12a
row,Compound,pre-emergence activity against DIGSA
1,COC(=O)c1nn(C)cc1C(=O)N1CCCC1Cc1ccc(F)cc1F (racemic) [Example I-096],100%
2,Cn1cc(C(=O)N2CCC2Cc2ccccc2F)c(COCC(F)F)n1 (racemic) [Example I-108],100%
3,Cn1cc(C(=O)N2CCC2Cc2ccccc2Cl)c(COCC(F)F)n1 (racemic) [Example I-109],100%
4,"COCc1c(C(=O)N2CCCC2Cc2c(F)cccc2Cl)cnn1C (single isomer, unassigned) [Example I-190]",100%

# Test system: POAAN
# Assay: B. Herbicidal post-emergence action on harmful plants (Tables B)
# Format: in vivo, Poa annua
# Conditions: application rate 320 g/ha; Table B7b
# Description: Seeds of mono- and dicotyledonous weed plants were placed in plastic pots in sandy loam soil (doubly sown with in each case one species of mono- or dicotyledonous weed plants per pot), covered with soil and cultivated in a greenhouse under controlled growth conditions. 2 to 3 weeks after sowing, the test plants were treated at the one-leaf stage. The compounds of the invention, formulated in the form of wettable powders (WP) or as emulsion concentrates (EC), were applied onto the green parts of the plants as aqueous suspension or emulsion with addition of 0.5% additive at a water application rate of 600 liters per hectare (converted). After the test plants had been kept in the greenhouse under optimum growth conditions for about 3 weeks, the activity of the preparations was rated visually in comparison to untreated controls. For example, 100% activity = the plants have died, 0% activity = like control plants. Tables B1 to B12, below, show the effects of selected compounds of the general formula (I) according to table 1 on various harmful plants and an application rate corresponding to 1280 g/ha or below obtained by the experimental procedure mentioned above. Table B1a: post-emergence activity at 1280g/ha against ABUTH in %
row,Compound,post-emergence activity against POAAN
1,COC(=O)c1nn(C)cc1C(=O)N1CCCC1Cc1ccc(F)cc1F (racemic) [Example I-096],100%

# Same assay, conditions: application rate 1280 g/ha; Table B7a
row,Compound,post-emergence activity against POAAN
1,COC(=O)c1nn(C)cc1C(=O)N1CCCC1Cc1ccc(F)cc1F (racemic) [Example I-096],100%
2,Cn1cc(C(=O)N2CCC2Cc2ccccc2F)c(COCC(F)F)n1 (racemic) [Example I-108],90%
3,"COCc1c(C(=O)N2CCCC2Cc2c(F)cccc2Cl)cnn1C (single isomer, unassigned) [Example I-190]",90%
